Results reported in patent publication US6339045B1, “N-(unsubstituted or substituted)-4-substituted-6-(unsubstituted or substituted)phenoxy-2-pyridinecarboxamides or thiocarboxamides, processes for producing the same, and herbicides” (Kureha Kagaku Kogyo Kabushiki Kaisha, priority 1995, dated 2002).

Columns and labels:
[1] = test system: black nightshade (Solanum nigrum); experiment: Herbicidal effect by foliage and soil treatment; type: in vivo; conditions: 10 g ai/10a, evaluated after 14 days
How it was run: (§1)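 Read-out: rated growth inhibition relative to non-treated plants 14 days after spraying. Young plants (cotyledon to two leaves) received a foliage-and-soil spray of compound in aqueous Tween 20 at a controlled rate, greenhouse at 19–25 °C.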

[2] = test system: cleavers (Galium aparine); experiment: Herbicidal effect by foliage and soil treatment; type: in vivo; conditions: 10 g ai/10a, evaluated after 14 days
How it was run: as §1

[3] = test system: common blackjack (Bidens pilosa); experiment: Herbicidal effect by foliage and soil treatment; type: in vivo; conditions: 10 g ai/10a, evaluated after 14 days
How it was run: as §1

[4] = test system: common chickweed (Stellaria media); experiment: Herbicidal effect by foliage and soil treatment; type: in vivo; conditions: 10 g ai/10a, evaluated after 14 days
How it was run: as §1

[5] = test system: field bindweed (Convolvulus arvensis); experiment: Herbicidal effect by foliage and soil treatment; type: in vivo; conditions: 10 g ai/10a, evaluated after 14 days
How it was run: as §1

[6] = test system: ivyleafspeedwell (Veronica hederaefolia); experiment: Herbicidal effect by foliage and soil treatment; type: in vivo; conditions: 10 g ai/10a, evaluated after 14 days
How it was run: as §1

[7] = test system: kediock (Sinapis arvensis); experiment: Herbicidal effect by foliage and soil treatment; type: in vivo; conditions: 10 g ai/10a, evaluated after 14 days
How it was run: as §1

[8] = test system: redroot pigweed (Amaranthus retroflexus); experiment: Herbicidal effect by foliage and soil treatment; type: in vivo; conditions: 10 g ai/10a, evaluated after 14 days
How it was run: as §1

[9] = test system: sicklepod (Cassia obtusifolia); experiment: Herbicidal effect by foliage and soil treatment; type: in vivo; conditions: 10 g ai/10a, evaluated after 14 days
How it was run: as §1

[10] = test system: velvetleaf (Abutilon theophrasti); experiment: Herbicidal effect by foliage and soil treatment; type: in vivo; conditions: 10 g ai/10a, evaluated after 14 days
How it was run: as §1

[11] = test system: wild chamomile (Matricaria chamomilla); experiment: Herbicidal effect by foliage and soil treatment; type: in vivo; conditions: 10 g ai/10a, evaluated after 14 days
How it was run: as §1

melting point: 77 to 79 °C
SMILES: CC[S+]([O-])CCNC(=O)c1cc(OC)cc(Oc2cccc(C(F)(F)F)c2)n1 (stereo not drawn) [Compound I-69, N-{2-(ethylsulfinyl)ethyl}-4-methoxy-6-{3-(trifluoromethyl)phenoxy}-2-pyridine carboxamide]
herbicidal activity rating, SN (Solanum nigrum) [1]: 5 (percentage of weeds killed was not less than 80%)
herbicidal activity rating, GA (Galium aparine) [2]: 5 (percentage of weeds killed was not less than 80%)
herbicidal activity rating, BP (Bidens pilosa) [3]: 3 (percentage of weeds killed was not less than 40% and less than 60%)
herbicidal activity rating, SM (Stellaria media) [4]: 4 (percentage of weeds killed was not less than 60% and less than 80%)
herbicidal activity rating, CA (Convolvulus arvensis) [5]: 4 (percentage of weeds killed was not less than 60% and less than 80%)
herbicidal activity rating, VH (Veronica hederaefolia) [6]: 5 (percentage of weeds killed was not less than 80%)
herbicidal activity rating, SA (Sinapis arvensis) [7]: 5 (percentage of weeds killed was not less than 80%)
herbicidal activity rating, AR (Amaranthus retroflexus) [8]: 5 (percentage of weeds killed was not less than 80%)
herbicidal activity rating, CO (Cassia obtusifolia) [9]: 5 (percentage of weeds killed was not less than 80%)
herbicidal activity rating, AT (Abutilon theophrasti) [10]: 5 (percentage of weeds killed was not less than 80%)
herbicidal activity rating, MC (Matricaria chamomilla) [11]: 3 (percentage of weeds killed was not less than 40% and less than 60%)
